Data on 19 compounds can be found in patent publication US4065456A, “Glycerol derivatives of quinoline carbostyryl and isocarbo styryl” (Otsuka Pharmaceutical Co., Ltd., priority 1973, dated 1977).

In test [1] the test system is ADP-Induced Aggregation In Rabbit Platelets. In words: Inhibition of ADP-induced aggregation in rabbit platelets (aggregometer, PRP). It is filed as cell-based. The following applies: Oryctolagus cuniculus, Platelet, ADP 7.5 × 10^-5 M, PRP 300,000 platelets/mm^3; for inhibition at 100 µM: concentration 10^-4 M; for inhibition at 1 µM: concentration 10^-6 M; for inhibition at 0.01 µM: concentration 10^-8 M; for inhibition at 10 µM: concentration 10^-5 M. How it is done:
(§1) The inhibitory activity of some compounds of this invention and the method for determination of the activity are described hereinafter in greater detail.
(§2) The aggregation inhibitory activity was determined using an AG-II type aggregometer (made by Bryston Manufacturing Co.). A blood sample was withdrawn from rabbits as a mixture of sodium citrate and whole blood in a proportion of 1:9 by volume and centrifuged at 1000 rpm for 10 minutes to obtain a platelet rich plasma (PRP). The resulting PRP was separated, and the remaining blood sample was further centrifuged at 3000 rpm for 15 minutes to obtain a platelet poor plasma (PPP).
(§3) The number of platelets in the PRP was counted in accordance with the Brecher-Clonkite Method, and the PRP was diluted with the PPP to prepare a PRP sample containing platelets in an amount of 300,000/mm^3 for an adenosine diphosphate (ADP)-induced aggregation test and a PRP sample containing platelets in an amount of 450,000/mm^3 for a collagen-induced aggregation test.
(§4) 0.01 ml of a solution of a test compound having a predetermined concentration (as shown in the Tables below) was then added to 0.6 ml of the PRP sample obtained above and the mixture was incubated at a temperature of 37° C for 1 minute. Then 0.07 ml of an ADP or collagen solution was added to the mixture. The mixture was then subjected to a transmittance determination and changes in the transmittance of the mixture were recorded using aggregometer at a stirrer rotation rate of 1100 rpm. In this test, Owren Veronal buffer (pH 7.35) was used for the preparation of solutions of ADP, collgen and the test compounds. ADP was adjusted to a concentration of 7.5 × 10^-5 M, and the collagen solution was prepared by triturating 100 mg of collagen with 5 ml of the above buffer and the supernatant obtained was used as a collagen inducer. Adenosine and acetylsalicylic acid were used as controls for the ADP-induced aggregation test and the collagen-induced aggregation test, respectively. The aggregation inhibitory activity was determined in terms of the percent inhibition (%) with respect to the aggregation ratio of controls. The aggregation ratio can be calculated by the following equation: [formula] Wherein:
(§5) "a" is the optical density of the PRP,
(§6) "b" is the optical density of the PRP having incorporated therein a test compound and an aggregation inducer, and
(§7) "c" is the optical density of the PPP.

Test [2] relates to Collagen-Induced Aggregation In Rabbit Platelets. Briefly: Inhibition of collagen-induced aggregation in rabbit platelets (aggregometer, PRP). The note with it: Oryctolagus cuniculus, Platelet, PRP 450,000 platelets/mm^3; for inhibition at 100 µM: concentration 10^-4 M; for inhibition at 10 µM: concentration 10^-5 M; for inhibition at 1 µM: concentration 10^-6 M; for inhibition at 0.01 µM: concentration 10^-8 M. It is filed as cell-based. How it is done: as §1, §2, §3, §4, §5, §6, §7

In test [1] (table 3), `OCC(O)COc1cccc2c(O)nccc12` (centres unmarked) gave an inhibition at 100 µM of 2%, an inhibition at 1 µM of 6% and an inhibition at 0.01 µM of 0%.
In test [2] (table 5), `CC(=O)Oc1ccccc1C(=O)O` [Acetylsalicylic Acid, reference compound] yielded an inhibition at 100 µM of 100%, an inhibition at 10 µM of 12% and an inhibition at 1 µM of 8%.
As to `Nc1ncnc2c1ncn2[C@@H]1O[C@H](CO)[C@@H](O)[C@H]1O` [Adenosine, reference compound], in test [1] (table 3), the inhibition at 100 µM was 70%, the inhibition at 1 µM came to 47% and 0.01 µM produced 5% inhibition. In addition, in test [1] (table 4), the inhibition at 100 µM came to 92%, testing at 10 µM gave an inhibition of 74%, the inhibition at 1 µM was 63% and the inhibition at 0.01 µM was 15%.
For `O=C1CCc2c(cccc2OCC(O)CO)N1` (centres unmarked) [drawing 32], in test [2] (table 2), the inhibition at 100 µM stood at 100%, the inhibition at 1 µM came to 11% and 0.01 µM produced 8% inhibition.
Taken in the same sequence, the figures for `CN1C(=O)CCc2c(OCC(O)CO)cccc21` (centres unmarked) [drawing 33] were 7%, 13% and 0%.
Turning to `C=CCN1C(=O)CCc2c(OCC(O)CO)cccc21` (centres unmarked) [drawing 34], in test [2] (table 2), the inhibition at 100 µM was determined as 0%, the inhibition at 1 µM is 0% and the inhibition at 0.01 µM came out at 0%.
In the case of `O=C1CCc2cc(OCC(O)CO)ccc2N1` (centres unmarked) [drawing 35], in test [2] (table 2), testing at 100 µM gave an inhibition of 100%, the inhibition at 1 µM stood at 9% and the inhibition at 0.01 µM is 26%.
The corresponding values for `O=C1CCc2ccc(OCC(O)CO)cc2N1` (centres unmarked) [drawing 36] are 13%, 18% and 4%.
The corresponding values for `O=C1CCc2cccc(OCC(O)CO)c2N1` (centres unmarked) [drawing 37] are 25%, 7% and 21%.
On to `O=C1CCc2c(cccc2OCC(O)CO)N1` (centres unmarked) [drawing 38], for which, in test [1] (table 3), testing at 100 µM gave an inhibition of 21%, at 1 µM the inhibition was 17% and the inhibition at 0.01 µM worked out at 21%.
As for `CN1C(=O)CCc2c(OCC(O)CO)cccc21` (centres unmarked) [drawing 39], in test [1] (table 3), testing at 100 µM gave an inhibition of 7%, testing at 1 µM gave an inhibition of 13% and the inhibition at 0.01 µM is 0%.
The corresponding values for `C=CCN1C(=O)CCc2c(OCC(O)CO)cccc21` (centres unmarked) [drawing 40] are 0%, 0% and 0%.
As for `O=C1CCc2cc(OCC(O)CO)ccc2N1` (centres unmarked) [drawing 41], in test [1] (table 3), the inhibition at 100 µM was found to be 100%, the inhibition at 1 µM came to 9% and the inhibition at 0.01 µM was 26%.
In test [1] (table 3), `O=C1CCc2ccc(OCC(O)CO)cc2N1` (centres unmarked) [drawing 42] gave an inhibition at 100 µM of 13%, an inhibition at 1 µM of 18% and an inhibition at 0.01 µM of 4%.
Taken in the same sequence, the figures for `O=C1CCc2cccc(OCC(O)CO)c2N1` (centres unmarked) [drawing 43] were 25%, 7% and 21%.
In test [1] (table 4), `O=C1CCc2c(cccc2OC[C@H](O)CO)N1` [drawing 46] returned an inhibition at 100 µM of 49%, an inhibition at 10 µM of 16%, an inhibition at 1 µM of 8% and an inhibition at 0.01 µM of 0%.
The corresponding values for `O=C1CCc2c(cccc2OCC(O)CO)N1` (centres unmarked) [drawing 47] are 51%, 18%, 18% and 15%.
In test [2] (table 5), `O=C1CCc2c(cccc2OC[C@H](O)CO)N1` [drawing 48] yielded an inhibition at 100 µM of 95%, an inhibition at 10 µM of 3%, an inhibition at 1 µM of 3% and an inhibition at 0.01 µM of 0%.
Regarding `O=C1CCc2c(cccc2OCC(O)CO)N1` (centres unmarked) [drawing 49], in test [2] (table 5), the inhibition at 100 µM stood at 95%, at 10 µM the inhibition was 17%, testing at 1 µM gave an inhibition of 7% and the inhibition at 0.01 µM came to 3%.

One may read the inhibition as the share of the control response that was lost under treatment.
